Reference: US10821115B2, “Compounds that inhibit Mcl-1 protein” (priority 2017, dated 2020)
Read-outs that look alike come from different tables or passages of the source.

What was measured:
[1] = biological target: recombinant human Mcl-1 (residues 171-327) / Bim interaction (Homo sapiens (Human), UniProt Q07820); test: biochemical; assay type: binding; conditions: read-out: Mcl-1 HTRF IC50
[2] = system: human multiple myeloma cell line, OPM-2; test: Cell viability assay (OPM-2 10 FBS), CellTiter-Glo; assay type: cell-based
In short: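 OPM-2 cells at 3000 cells/well in RPMI 1640 with 10% FBS were exposed to serially diluted compounds for 16 h at 37 °C, 5% CO2.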

[3] = TR-FRET, Mcl-1(171-327) / biotin-Bim (51-76)
[4] = Homo sapiens, OPM-2, 16 h, read-out: OPM-2 10% FBS IC50 IP, OPM-2 cells, 10% FBS, 16 h, CellTiter-Glo
[5] = 0.1 nM Mcl-1(171-327), 0.05 nM biotin-Bim (51-76)
[6] = Homo sapiens, OPM-2, 16 h, read-out: OPM-2 10% FBS IC50 IP, OPM-2 cells, 10% FBS, 16 h incubation
[7] = read-out: OPM-2 10% FBS IC50 IP, OPM-2 cells, 10% FBS, 16 h incubation
[8] = read-out: OPM-2 10% FBS IC50 IP, OPM-2 cells, 10% FBS, 16 h, CellTiter-Glo

Sequence of recombinant human Mcl-1 (residues 171-327) / Bim interaction (Q07820 171-327): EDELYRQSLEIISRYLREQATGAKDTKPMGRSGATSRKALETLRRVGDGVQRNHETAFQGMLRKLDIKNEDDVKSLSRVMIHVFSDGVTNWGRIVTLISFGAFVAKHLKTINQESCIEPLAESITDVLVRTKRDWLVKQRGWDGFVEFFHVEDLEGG

SMILES	IC50 [1, 3] [nM]	IC50 [2, 4] [nM]	IC50 [1, 5] [nM]	IC50 [2, 6] [nM]	other results
CO[C@@]1(C#CCCN2CCN(S(C)(=O)=O)CC2)/C=C/C[C@H](C)[C@@H](C)S(=O)(=O)NC(=O)c2ccc3c(c2)N(C[C@@H]2CC[C@H]21)C[C@@]1(CCCc2cc(Cl)ccc21)CO3 [Example 100488, (1S,3′R,6′R,7′S,8′E,11′S,12′R)-6-chloro-7′-methoxy-11′,12′-dimethyl-7′-(4-(4-(methylsulfonyl)-1-piperazinyl)-1-butyn-1-yl)-3,4-dihydro-2H,15′H-spiro[naphthalene-1,22′-[20]oxa[13]thia[1,14]diazatetracyclo [14.7.2.0~3,6~.0~19,24~]pentacosa[8,16,18,24]tetraen]-15′-one 13′,13′-dioxide]	0.389	346	–	–	–
CO[C@@]1(CN2CCN(c3nccs3)CC2)/C=C/C[C@H](C)[C@@H](C)S(=O)(=O)NC(=O)c2ccc3c(c2)N(C[C@@H]2CC[C@H]21)C[C@@]1(CCCc2cc(Cl)ccc21)CO3 [Example 255, (1S,3′R,6′R,7′S,8′E,11′S,12′R)-6-chloro-7′-methoxy-11′,12′-dimethyl-7′-((4-(1,3-thiazol-2-yl)-1-piperazinyl)methyl)-3,4-dihydro-2H,15′H-spiro[naphthalene-1,22′-[20]oxa[13]thia[1,14]diazatetracyclo [14.7.2.0~3,6~.0~19,24~]pentacosa[8,16,18,24]tetraen]-15′-one 13′,13′-dioxide]	–	–	1.74	1480	–
C[C@@H]1[C@@H](C)C/C=C/[C@@](O)(C2CC2)[C@@H]2CC[C@H]2CN2C[C@@]3(CCCc4cc(Cl)ccc43)COc3ccc(cc32)C(=O)NS1(=O)=O [Example 100214, (1S,3′R,6′R,7′S,8′E,11′S,12′R)-6-chloro-7′-cyclopropyl-7′-hydroxy-11′,12′-dimethyl-3,4-dihydro-2H,15′H-spiro[naphthalene-1,22′-[20]oxa[13]thia[1,14]diazatetracyclo [14.7.2.0~3,6~.0~19,24~]pentacosa[8,16,18,24]tetraen]-15′-one 13′,13′-dioxide]	0.143	95	–	–	–
C=C(F)C[C@]1(O)/C=C/C[C@H](C)[C@@H](C)S(=O)(=O)NC(=O)c2ccc3c(c2)N(C[C@@H]2CC[C@H]21)C[C@@]1(CCCc2cc(Cl)ccc21)CO3 [Example 100565, (1S,3′R,6′R,7′S,8′E,11′S,12′R)-6-chloro-7′-(2-fluoro-2-propen-1-yl)-7′-hydroxy-11′,12′-dimethyl-3,4-dihydro-2H,15′H-spiro[naphthalene-1,22′-[20]oxa[13]thia[1,14]diazatetracyclo [14.7.2.0~3,6~.0~19,24~]pentacosa[8,16,18,24]tetraen]-15′-one 13′,13′-dioxide]	1.54	2060	–	–	–
CO[C@]1(CN2CCN3CCN(S(C)(=O)=O)C[C@@H]3C2)/C=C/C[C@H](C)[C@@H](C)S(=O)(=O)NC(=O)c2ccc3c(c2)N(C[C@@H]2CC[C@H]21)C[C@@]1(CCCc2cc(Cl)ccc21)CO3 [Example 227]	–	–	0.207	–	IC50 [2, 7]: 131 nM
C[C@@H]1[C@@H](C)C/C=C/[C@@](O)(C[S@@+](C)[O-])[C@@H]2CC[C@H]2CN2C[C@@]3(CCCc4cc(Cl)ccc43)COc3ccc(cc32)C(=O)NS1(=O)=O (stereo in doubt) [Example 100075]	0.671	–	–	–	IC50 [2, 8]: 1820 nM
CO[C@@]1(CN2CCN(C3(C#N)COC3)CC2)/C=C/C[C@H](C)[C@@H](C)S(=O)(=O)NC(=O)c2ccc3c(c2)N(C[C@@H]2CC[C@H]21)C[C@@]1(CCCc2cc(Cl)ccc21)CO3 [Example 272, 3-(4-(((1S,3′R,6′R,7′S,8′E,11′S,12′R )-6-chloro-7′-methoxy-11′,12′-dimethyl-13′,13′-dioxido-15′-oxo-3,4-dihydro-2H-spiro[naphthalene-1,22′-[20]oxa[13]thia[1,14]diazatetracyclo [14.7.2.0~3,6~.0~19,24~]pentacosa[8,16,18,24]tetraen]-7′-yl)methyl)-1-piperazinyl)-3-oxetanecarbonitrile]	–	–	0.144	137	–
C[C@@H]1[C@@H](C)CCC[C@](CO)(OCCN2CCOCC2)[C@@H]2CC[C@H]2CN2C[C@@]3(CCCc4cc(Cl)ccc43)COc3ccc(cc32)C(=O)NS1(=O)=O [Example 100280, (1S,3′R,6′R,7′S,11′S,12′R)-6-chloro-7′-(hydroxymethyl)-11′,12′-dimethyl-7′-(2-(4-morpholinyl)ethoxy)-3,4-dihydro-2H,15′H-spiro[naphthalene-1,22′-[20]oxa[13]thia[1,14]diazatetracyclo [14.7.2.0~3,6~.0~19,24~]pentacosa[16,18,24]trien]-15′-one 13′,13′-dioxide]	0.368	305	–	–	–
C[C@@H]1[C@@H](C)C/C=C/[C@@](O)(C#CCCN2CCOCC2)[C@@H]2CC[C@H]2CN2C[C@@]3(CCCc4cc(Cl)ccc43)COc3ccc(cc32)C(=O)NS1(=O)=O (single isomer, unassigned) [Example 100017]	0.039	–	–	–	IC50 [2, 8]: 40 nM
CO[C@@]1(CN2CCN(C3CN(C(C)=O)C3)CC2)/C=C/C[C@H](C)[C@@H](C)S(=O)(=O)NC(=O)c2ccc3c(c2)N(C[C@@H]2CC[C@H]21)C[C@@]1(CCCc2cc(Cl)ccc21)CO3 [Example 280, (1S,3′R,6′R,7′S,8′E,11′S,12′R)-7′-((4-(1-acetyl-3-azetidinyl)-1-piperazinyl)methyl)-6-chloro-7′-methoxy-11′,12′-dimethyl-3,4-dihydro-2H,15′H-spiro[naphthalene-1,22′-[20]oxa[13]thia[1,14]diazatetracyclo [14.7.2.0~3,6~.0~19,24~]pentacosa[8,16,18,24]tetraen]-15′-one 13′,13′-dioxide]	–	–	0.052	73	–
C[C@@H]1[C@@H](C)C/C=C/[C@]2(CN(CC3CCOCC3)CCO2)[C@@H]2CC[C@H]2CN2C[C@@]3(CCCc4cc(Cl)ccc43)COc3ccc(cc32)C(=O)NS1(=O)=O [Example 135, (1S,3′R,6′R,7′R,8′E,11′S,12′R)-6-chloro-11′,12′-dimethyl-4″- (tetrahydro-2H-pyran-4-ylmethyl)-3,4-dihydro-2H,15′H-dispiro[naphthalene-1,22′-[20]oxa[13]thia[1,14]diazatetracyclo [14.7.2.0~3,6~.0~19,24~]pentacosa[8,16,18,24]tetraene-7′,2″-[1,4]oxazinan]-15′-one 13′,13′-dioxide]	–	–	8.18	> 33300	–
CO[C@@]1(CN2CCCN(C(C)C)CC2)/C=C/C[C@H](C)[C@@H](C)S(=O)(=O)NC(=O)c2ccc3c(c2)N(C[C@@H]2CC[C@H]21)C[C@@]1(CCCc2cc(Cl)ccc21)CO3 [Example 331]	–	–	0.184	–	IC50 [2, 7]: 230 nM
CO[C@@]1(CN2CCN3CCCC[C@@H]3C2)/C=C/C[C@H](C)[C@@H](CC2CCC2)S(=O)(=O)NC(=O)c2ccc3c(c2)N(C[C@@H]2CC[C@H]21)C[C@@]1(CCCc2cc(Cl)ccc21)CO3 [Example 41, (1S,3′R,6′R,7′S,8′E,11′S,12′R)-6-chloro-12′-(cyclobutylmethyl)-7′-methoxy-11′-methyl-7′-((9aR)-octahydro-2H-pyrido[1,2-a]pyrazin-2-ylmethyl)-3,4-dihydro-2H,15′H-spiro[naphthalene-1,22′-[20]oxa[13]thia[1,14]diazatetracyclo [14.7.2.0~3,6~.0~19,24~]pentacosa[8,16,18,24]tetraen]-15′-one 13′,13′-dioxide]	–	–	0.642	810	–
COCC[C@@H]1[C@@H](C)C/C=C/[C@](CN2CCN3CCCC[C@@H]3C2)(OC)[C@@H]2CC[C@H]2CN2C[C@@]3(CCCc4cc(Cl)ccc43)COc3ccc(nc32)C(=O)NS1(=O)=O [Example 21, (1S,3′R,6′R,7′S,8′E,11′S,12′R)-6-chloro-7′-methoxy-12′-(2-methoxyethyl)-11′-methyl-7′-((9aR)-octahydro-2H-pyrido[1,2-a]pyrazin-2-ylmethyl)-3,4-dihydro-2H, 15′H-spiro[naphthalene-1,22′-[20]oxa[13]thia[1,14,25]triazatetracyclo[14.7.2.0˜3,6˜.0˜19,24˜]pentacosa[8,16,18,24]tetraen]-15′-one 13′,13′-dioxide]	–	–	0.156	47	–
CO[C@@]1(c2csc(C)n2)/C=C/C[C@H](C)[C@@H](C)S(=O)(=O)NC(=O)c2ccc3c(c2)N(C[C@@H]2CC[C@H]21)C[C@@]1(CCCc2cc(Cl)ccc21)CO3 [Example 100517, (1S,3′R,6′R,7′S,8′E,11′S,12′R)-6-chloro-7′-methoxy-11′,12′-dimethyl-7′-(2-methyl-1,3-thiazol-4-yl)-3,4-dihydro-2H,15′H-spiro[naphthalene-1,22′-[20]oxa[13]thia[1,14]diazatetracyclo [14.7.2.0~3,6~.0~19,24~]pentacosa[8,16,18,24]tetraen]-15′-one 13′,13′-dioxide]	1.06	3460	–	–	–
CN[C@@H]1C[C@H](C)[C@@H](C)S(=O)(=O)NC(=O)c2ccc3c(c2)N(C[C@@H]2CC[C@H]2[C@@](C)(O)C1)C[C@@]1(CCCc2cc(Cl)ccc21)CO3 [Example 100066, (1S,3′R,6′R,7′S,9′R,11′S,12′R)-6-chloro-7′-hydroxy-7′,11′,12′-trimethyl-9′-(methylamino)-3,4-dihydro-2H,15′H-spiro[naphthalene-1,22′-[20]oxa[13]thia[1,14]diazatetracyclo [14.7.2.0~3,6~.0~19,24~]pentacosa[16,18,24]trien]-15′-one 13′,13′-dioxide]	1.43	–	–	–	IC50 [2, 8]: 3820 nM
